Experimental data: publication PMC4134510 (Journal of medicinal chemistry, 2010)

Columns and labels:
[1] = type: in vivo; conditions: mice, oral once daily
[2] = Pharmacokinetic properties on Balb/C mouse; conditions: in vivo, oral, 20 mg/kg
PDK1(h) = molecular target: T1, PDK1(h) (Homo sapiens, UniProt O15530); assay: Kinase selectivity panel, enzymatic activity; type: biochemical; conditions: read-out: Enzymatic activity (% inhibition): PDK1(h)
T1 sequence (O15530 1-556): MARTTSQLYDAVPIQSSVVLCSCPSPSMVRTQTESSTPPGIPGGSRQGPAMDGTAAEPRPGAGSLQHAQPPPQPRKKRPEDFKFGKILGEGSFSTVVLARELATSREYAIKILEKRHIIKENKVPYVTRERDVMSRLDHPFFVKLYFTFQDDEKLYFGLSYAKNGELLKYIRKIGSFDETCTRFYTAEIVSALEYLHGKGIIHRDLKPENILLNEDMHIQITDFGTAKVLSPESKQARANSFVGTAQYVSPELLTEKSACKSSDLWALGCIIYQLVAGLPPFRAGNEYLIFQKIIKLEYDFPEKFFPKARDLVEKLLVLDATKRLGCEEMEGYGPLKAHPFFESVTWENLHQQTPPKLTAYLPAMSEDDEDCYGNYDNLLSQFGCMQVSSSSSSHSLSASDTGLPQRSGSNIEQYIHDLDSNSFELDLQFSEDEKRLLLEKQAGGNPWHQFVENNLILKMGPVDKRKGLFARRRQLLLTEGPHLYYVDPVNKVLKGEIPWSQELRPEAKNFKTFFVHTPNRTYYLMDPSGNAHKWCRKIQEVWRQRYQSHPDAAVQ

For `Cc1ccc(Nc2ncc3c(n2)N(C)C(=O)N(c2cc(NC(=O)c4cccc(C(F)(F)F)c4)ccc2C)C3)cn1` [GNF-7], the body weight change ([1]; 10 mg/kg dosing group) was “only a very small weight change”, the body weight loss ([1]; doses of 20 mg/kg and above) was greater than 10% and the AUC [2] was 26.7 µM·h. For the same molecule, the inhibition at 10 µM (PDK1(h)) was 0%.
